Results as given in paper PMC7725785, “TRIB3 promotes MYC-associated lymphoma development through suppression of UBE3B-mediated MYC degradation” (Nature Communications, 2020).
“And” between values parts separate entries of the source, which are not always exact repeats. Equal entries are not always repeated.

How the values were obtained:
MYC and UBE3B = assay: MYC/UBE3B colocalized foci in Raji cells; format: cell-based, human
Protocol: A total of 1 × 10^6 cells were seeded overnight in a six-well plate. […] The cells were then treated with the Duolink In Situ Red Starter Mouse/Rabbit kit (Sigma Aldrich, DUO92101-1KT) according to the manufacturer’s instructions. Images were captured with an OLYMPUS confocal microscope.
For immunofluorescence staining, cells seeded on coverslips were briefly washed with PBS and fixed with 4% buffered paraformaldehyde for 15 min, permeabilized with 0.5% Triton X- 100 for 15 min, blocked with 3% BSA for 30 min at 37 °C, and stained with specific primary antibodies followed by corresponding secondary antibodies. Nuclei were counterstained with DAPI. Images were captured using a confocal fluorescent microscope (Olympus Microsystems, CA, USA). Quantitative image analysis was performed with the Imaris 9.3.1 software. Pearson’s coefficient was use to analyze colocalization between two target proteins.

TRIB3-MYC interaction = assay: SIM imaging and Co-IP of the TRIB3-MYC interaction in Raji cells; format: cell-based, human; details: SIM (30 min) and Co-IP (4 μM, six hours), versus PCON, result in words
Protocol: (§1) Co-IP experiments were performed as described previously. Briefly, cells were collected and lysed for 30 min on ice. Soluble lysates were incubated with the indicated antibodies at 4 °C overnight, followed by incubation with Protein A/G Plus-Agarose (Santa Cruz Biotechnology, TX, USA) at 4 °C for 2 h. Soluble lysates were incubated with the indicated Anti-Myc magnetic beads (Bimake.com, B26302), Anti-Flag Affinity Gel (Bimake.com, B23102) or Anti-HA Affinity Gel (Bimake.com, B23302) at 4 °C overnight. Immunocomplexes were separated from the beads and then boiled for 10 min. The precipitated proteins were subjected to SDS-PAGE and blotted with specific antibodies. For immunoblotting assays, proteins were extracted from cells, spleens, or lymphoma tissues using RIPA buffer (Cell Signaling Technology, MA, USA). A BCA Protein Assay Kit was used to determine protein concentrations. Protein extracts were separated by SDS-PAGE, transferred onto PVDF membranes, and subjected to immunoblot analysis. Western blot images were captured by a Tanon 5200 chemiluminescent imaging system (Tanon, Shanghai, […]). Human lymphoma and benign LN paraffin tissue microarrays were purchased from US Biomax (LM482a).
Cells (~20,000) were grown on coverslips and fixed with formalin after the indicated treatment. […]

MYC ubiquitination = MYC ubiquitination in PCON- and PCM4-treated Raji cells; format: cell-based, human; details: lymphoma cells; result in words
MYC protein = MYC protein level by immunoblotting in Jurkat and Raji cells; format: cell-based, human; details: 4 μM, result in words
Protocol: as §1

PTCL^T144 PDX = assay: PDX model tumor growth and weight, PTCL T144; format: in vivo, human; details: result in words
Protocol: (§2) Four 5-week-old male NSG mice were implanted subcutaneously with 200 μl of a 1:1 mixture of Matrigel® Basement Membrane Matrix High Concentration (Corning, 354230) and minced fresh tumor fragments resected from lymphoma patients. Approximately 3–4 weeks following implantation, the first-generation mice (G1) were killed, and tumor masses were isolated. The tumor cells were tested for human CD19 (BCL) or CD3 expression (T cell lymphoma), and the remaining tumor mass was cut into 3-mm^3 sections and passaged into 4–5 NSG mice as the second generation (G2). After stable passage of the third generation (G3), the tumor mass of the fourth generation (G4) was equally cut into 3-mm^3 pieces and then passaged subcutaneously into 30–50 NSG mice (100 μl of a 1:2 mixture of Matrigel and tumor tissue) for in vivo treatment (6–8 mice per group, dependent on the experimental drug treatment). During and after treatment with the vehicle control or the indicated agent, tumor burden was evaluated by measuring the tumor volume to determine the therapeutic efficacy in the PDX models. […]
(§3) To evaluate the survival rate, these mice were monitored for 8 months (Myc^Eμ mice). […] During the indicated treatments, tumor burden was evaluated by measuring the tumor volume to determine the therapeutic efficacy in the PDX models.

TLBL^T123 PDX = assay: PDX model tumor growth and weight, T-LBL T123; format: in vivo, human; details: result in words
Protocol: as §2, §3

FL^T174 PDX = assay: PDX model tumor growth and weight, FL T174; format: in vivo, human; details: result in words
Protocol: as §2, §3

**Q.** Which “Fig 6f. MYC/UBE3B foci per cell” value (MYC and UBE3B; 30 Min, single cells, n = 20) does the source give for “HLYVSPWGGKRREQLKHKLEQLR [PCM4, fused peptide generated by linking CM4 to a cell-penetrating peptide]” here?
**A.** The value was 12 and 11.

**Q.** What about the “interaction of MYC and UBE3B” value (MYC and UBE3B; result in words) of the same sequence?
**A.** Its value is “rescued the interaction of MYC and UBE3B”.

**Q.** And the “colocalization and interaction of TRIB3 with MYC in lymphoma cells” value (TRIB3-MYC interaction)?
**A.** The value was “inhibited the colocalization and interaction of TRIB3 with MYC”.

**Q.** What about the “MYC ubiquitination and degradation” value (MYC ubiquitination) of the same sequence?
**A.** The value was “rescued MYC ubiquitination and degradation”.

**Q.** What about the MYC abundance (MYC protein) of the same sequence?
**A.** The MYC abundance was “reduced the MYC abundance”.

**Q.** And the “growth and weights of tumors, combination of PCM4 and DOX” value (“growth and weights of tumors” below) (PTCL^T144 PDX; PDX T144 (high TRIB3 and MYC expression), PCM4 5 mg/kg and DOX 2 mg/kg)?
**A.** The value was “further decreased the growth and weights of tumors”.

**Q.** And the “tumor growth of PDX” value (PTCL^T144 PDX; PDX T144, NSG mice, PCM4 5 mg/kg i.v. three times a week)?
**A.** Its value is “inhibited the tumor growth”.

**Q.** What about the “growth and weights of tumors” value (TLBL^T123 PDX; PDX T123 (high TRIB3 and MYC expression), PCM4 5 mg/kg and DOX 2 mg/kg) of the same sequence?
**A.** The value was “further decreased the growth and weights of tumors”.

**Q.** What about the “tumor growth of PDX” value (TLBL^T123 PDX; PDX T123, NSG mice, PCM4 5 mg/kg i.v. three times a week) of the same sequence?
**A.** Its value is “inhibited the tumor growth”.

**Q.** What about the “growth and weights of tumors” value (FL^T174 PDX; PDX T174 (high TRIB3 and MYC expression), PCM4 5 mg/kg and DOX 2 mg/kg) of the same sequence?
**A.** The value was “further decreased the growth and weights of tumors”.

**Q.** What about the “tumor growth of PDX” value (FL^T174 PDX; PDX T174, NSG mice, PCM4 5 mg/kg i.v. three times a week) of the same sequence?
**A.** Its value is “inhibited the tumor growth”.
